Data: US20230339854A1, “Negative Allosteric Modulation of GluN3-Containing N-Methyl-D-Aspartate Receptors” (Emory University, priority 2020, published 2023)
Values after ≈ are worked out from the molar mass of the structure shown. “Also recorded” adds a separate entry of the source.

Assays:
GluK2 kainate receptors = target: T1, GluK2 kainate receptors (Rattus norvegicus, UniProt P42260); test: Kainate receptors in Xenopus oocytes (selectivity); type: cell-based; conditions: 20 μM
T1 construct: expressed in transfected cells; host or cells: Xenopus laevis oocytes, cRNA injection
T1 sequence (P42260 32-908): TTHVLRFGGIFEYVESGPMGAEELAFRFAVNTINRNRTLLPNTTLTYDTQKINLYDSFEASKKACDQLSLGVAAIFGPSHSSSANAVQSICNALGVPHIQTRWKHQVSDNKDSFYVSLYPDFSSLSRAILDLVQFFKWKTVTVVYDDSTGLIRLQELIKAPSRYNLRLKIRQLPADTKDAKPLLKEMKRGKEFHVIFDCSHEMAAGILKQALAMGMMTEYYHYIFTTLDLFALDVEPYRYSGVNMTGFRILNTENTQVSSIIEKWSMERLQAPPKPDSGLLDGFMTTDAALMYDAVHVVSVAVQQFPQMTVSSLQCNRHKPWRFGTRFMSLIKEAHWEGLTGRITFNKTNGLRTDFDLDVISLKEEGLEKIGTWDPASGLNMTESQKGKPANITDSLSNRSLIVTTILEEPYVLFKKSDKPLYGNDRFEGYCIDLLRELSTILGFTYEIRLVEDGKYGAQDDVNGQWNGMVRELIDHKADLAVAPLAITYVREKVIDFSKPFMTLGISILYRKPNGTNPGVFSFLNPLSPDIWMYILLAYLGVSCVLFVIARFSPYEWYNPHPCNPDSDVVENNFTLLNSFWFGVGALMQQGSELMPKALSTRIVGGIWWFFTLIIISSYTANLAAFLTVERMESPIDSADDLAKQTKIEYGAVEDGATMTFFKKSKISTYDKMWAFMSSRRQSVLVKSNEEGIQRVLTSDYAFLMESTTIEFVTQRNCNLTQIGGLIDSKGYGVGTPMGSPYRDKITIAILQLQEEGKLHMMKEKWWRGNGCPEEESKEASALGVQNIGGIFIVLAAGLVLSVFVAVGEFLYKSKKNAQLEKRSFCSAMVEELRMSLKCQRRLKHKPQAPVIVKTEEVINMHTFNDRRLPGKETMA
Experimental: The numbers of oocytes recorded are in parentheses.
The cDNA was linearized by restriction enzymes (Thermo Fisher Scientific, Lithuania), and the cRNA encoding the receptor subunits was synthesized from the linear template cDNA using the mMESSAGE mMACHINE kit (Invitrogen/Thermo Fisher Scientific, Lithuania). The α1β1δγ nAChR subunits were injected at a 1:1:1:1 ratio while α4 […] nAChR subunits were injected at a 1:1 ratio. The cDNAs encoding GABA and glycine subunits were provided by Dr. D. Weiss (University of Texas Health Science Center at San Antonio). The cDNAs encoding nAChR subunits were provided by Drs. R. Papke (University of Florida) and S. Heinemann (Salk Institute). The cDNA encoding the purinergic receptor was provided by Dr. R. Hume (University of Michigan).
Responses in the presence of EU1180-438 were expressed as a percent of control calculated as the average of the responses before and after EU1180-438 exposure. […]
Defolliculated Xenopus laevis oocytes (stage V-VI) were obtained from Ecocyte BioScience (Austin, Texas), or prepared from commercially available Xenopus ovaries (Xenopus 1, Dexter, MI) as previously described (Hansen, et al., Mol. Pharmacol., 2013). […] Recording electrodes were filled with 0.3-3.0 M KCl, and current responses were recorded at a holding potential of −40 mV.

[1] = test system: GluN1/GluN2 NMDA receptors; test: Whole-cell patch-clamp of NMDA-activated responses in hippocampal CA1 pyramidal cells, acute brain slices; type: cell-based, mouse; conditions: 30 μM; 0.5 mM NMDA
GluN1/GluN3A channels = GluN1/GluN3A channels (Mus musculus, UniProt A2AIR5); test: Nonstationary variance analysis of neuronal glycine-evoked current responses; type: cell-based; conditions: 30 μM; VHOLD −60 mV
Sequence of GluN1/GluN3A channels (A2AIR5 27-1135, other chains not shown): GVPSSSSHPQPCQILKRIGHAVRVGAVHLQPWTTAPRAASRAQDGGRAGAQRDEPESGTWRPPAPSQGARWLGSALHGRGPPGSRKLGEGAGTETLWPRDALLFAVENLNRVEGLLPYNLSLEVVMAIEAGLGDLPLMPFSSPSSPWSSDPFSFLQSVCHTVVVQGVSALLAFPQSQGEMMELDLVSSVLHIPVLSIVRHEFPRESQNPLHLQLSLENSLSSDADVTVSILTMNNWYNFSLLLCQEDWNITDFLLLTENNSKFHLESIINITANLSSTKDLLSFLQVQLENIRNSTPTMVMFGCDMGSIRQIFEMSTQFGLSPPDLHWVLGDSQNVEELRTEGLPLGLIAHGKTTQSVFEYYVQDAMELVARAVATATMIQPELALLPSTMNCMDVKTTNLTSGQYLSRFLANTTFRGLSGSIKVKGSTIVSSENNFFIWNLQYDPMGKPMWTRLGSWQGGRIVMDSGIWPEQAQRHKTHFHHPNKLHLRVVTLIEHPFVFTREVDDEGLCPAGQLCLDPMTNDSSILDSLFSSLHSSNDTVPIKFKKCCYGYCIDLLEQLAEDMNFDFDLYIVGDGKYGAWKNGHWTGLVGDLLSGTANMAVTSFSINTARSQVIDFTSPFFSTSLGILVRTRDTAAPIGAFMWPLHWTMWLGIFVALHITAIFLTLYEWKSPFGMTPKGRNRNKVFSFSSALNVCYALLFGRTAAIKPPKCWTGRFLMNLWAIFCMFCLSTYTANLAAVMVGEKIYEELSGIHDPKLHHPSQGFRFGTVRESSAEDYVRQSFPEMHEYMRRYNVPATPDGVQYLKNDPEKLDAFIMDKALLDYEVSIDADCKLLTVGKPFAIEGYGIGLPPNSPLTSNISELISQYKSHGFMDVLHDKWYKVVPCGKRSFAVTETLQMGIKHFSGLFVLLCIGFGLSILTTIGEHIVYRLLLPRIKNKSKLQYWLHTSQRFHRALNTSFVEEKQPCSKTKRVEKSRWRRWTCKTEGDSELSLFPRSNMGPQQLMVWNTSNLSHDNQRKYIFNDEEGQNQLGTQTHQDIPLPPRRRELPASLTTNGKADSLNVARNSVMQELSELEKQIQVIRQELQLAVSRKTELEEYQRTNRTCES
Experimental: Nonstationary variance analysis (Perszyk, et al., Nat. Chem. Biol., 2020, 16(2), 188-196) was conducted on the deactivation phase of the neuronal glycine-evoked current responses bathed in vehicle (control) or 30 μM EU1180-438 (VHOLD: −60 mV). […] The current was divided into 50 equally spaced segments, and the mean current amplitude of each segment was determined. The current was high pass filtered with a cutoff of 1 Hz, and the current variance was determined for 50 segments. The plot of variance vs. current for each response was fitted by the equation:
Variance=iI−I^2/N • where I is the current amplitude of macroscopic response, i is the weighted mean unitary current, and N is the channel numbers. Virtually identical results were found if the current-variance relationship for all 10 responses for each cell were averaged and then fitted by the foregoing equation. Chord conductance y was determined assuming 0 mV for the reversal potential.
Some allosteric modulators with molecular determinants in the pre-M1 can reduce single channel conductance for glutamate receptors (Perszyk, et al., Nat. Chem. Biol., 2020, 16(2), 188-196; Yuan, et al., ACS Med. Chem. Lett., 2019, 10 (3), 237-242). […]

[2] = Maximum solubility by nephelometry; type: physicochemical; conditions: aqueous buffer, kinetic from dmso stock; oocyte recording buffer (pH 7.4)
Experimental: The maximum solubility for the synthesized compounds was determined using a BMG Labtech Nephelostar™ nephelometer according to the manufacturer's instructions. For example, EU1180-438 was taken up in DMSO to prepare a 10 mM stock solution. The 10 mM solution was serially diluted into eleven concentrations (10, 5, 2.5, 1.25, 0.625, 0.3125, 0.1563, 0.0781, 0.0391, 0.0193, and 0.0098 mM) at the top of a clear-bottom 96-well plate. These were then each distributed into the subsequent 7 wells in 2.5 μL increments and diluted 100-fold (2.5 μL to 250 μL) with oocyte recording buffer (pH 7.4) into concentrations of 100, 50, 25, 12.5, 6.25, 3.125, 1.563, 0.781 0.391, 0.193, and 0.098 μM. The 96-well plate was shaken gently for 90 minutes before analysis.

activity at GluK2 kainate receptors (GluK2 kainate receptors): virtually no activity | average chord conductance of GluN1/GluN3A channels (GluN1/GluN3A channels): 6.3±0.90 pS | solubility at 90 min [2]: 37 µM (≈ 14.4 µg/mL)
Structure (SMILES): COc1ccc(OCC(c2ccc(OC)cc2)N2Cc3ccccc3C2=O)cc1 (racemic) [EU1180-438, 2-(2-(4-methoxyphenoxy)-1-(4-methoxyphenyl)ethyl)isoindolin-1-one]
effect on NMDA-activated responses mediated by GluN1/GluN2 NMDA receptors [1]: not modulated; also recorded: did not affect
